Like-named read-outs stand apart in the source and are kept apart here.
Tests used:
[1] = tested on: trypomastigote forms of T. cruzi (Dm28c-Luc); test: Trypanocidal activity against trypomastigotes (luciferase luminescence, 24 h); assay type: cell-based, Trypanosoma cruzi; details: for IC90 / IC50: Trypanosoma cruzi, Dm28c-Luc, 24 h
Protocol: (§1) A drug screen was carried out with Trypanosoma cruzi clone Dm28c genetically modified to express luciferase (Dm28c-luc), kindly provided by Dr. Cristina Henriques. The genetically modified T. cruzi clone Dm28c (Dm28c-Luc) has the firefly luciferase gene integrated into the genome, stably expressing the luminescent enzyme. The bioluminescent signal, proportional to the number of parasites, is produced by adding a D-luciferin substrate. Trypomastigotes were harvested from supernatants of VERO cell cultures, infected at a ratio of 10:1 parasite/host cells, 4 days post-infection (4 dpi). Parasites were used for phenotypic drug screening procedures. Luminescent parasites are a reliable and sensitive tool that allows precise quantification of parasite load. The use of genetically modified organisms was approved under license CQB 105/99.
All triazole analogs were analyzed for their biological activity against trypomastigote and intracellular amastigote forms of T. cruzi (Dm28c-Luc). Trypomastigotes (1.0 × 10^6 parasites/well) were incubated for 24 h at 37 °C with triazole derivatives and Bz at concentrations ranging from 0.04 to 100 µM. Luciferin (300 µg/mL), a luciferase substrate, was added to parasite suspensions to evaluate trypomastigotes viability. The luminescent signal was measured using a Glomax microplate reader. A maximal DMSO concentration (0.1%) was used as the negative control. The inhibitory concentration 50 (IC50) and 90 (IC90) against T. cruzi, which reduces the number of parasites by 50% and 90%, respectively, was calculated using linear regression. The selectivity index (SI), a ratio that measures the window between toxicity in mammalian cells and anti-T. cruzi activity (SI = CC50/IC50), was also determined.

[2] = tested on: intracellular amastigote forms of T. cruzi (Dm28c-Luc); test: Activity against intracellular amastigotes in infected VERO cells (72 h); assay type: cell-based, Trypanosoma cruzi; details: for IC50 / IC90: Trypanosoma cruzi, infected VERO cells, 72 h, mean ± SD; for IC50: read-out: Trypanocidal Activity Intracellular Amastigotes IC50; for Intracellular Amastigotes SI: SI = CC50 of VERO cells/IC50 of intracellular amastigotes; for IC90: read-out: Trypanocidal Activity Intracellular Amastigotes IC90
Protocol: as §1
Activity against intracellular amastigotes was determined in cultures of VERO cells infected by T. cruzi (24 h), as previously described. Briefly, infected cultures were treated for 72 h at 37 °C with different concentrations of triazole derivatives (0.04–100 µM). Then, the culture supernatant was removed, and the viability of the intracellular parasites was evaluated after adding luciferin (300 µg/mL) to the cell monolayer followed by reading using the microplate reader. Anti-T. cruzi activity (IC50 and IC90) and SI values were determined. All experimental assays were performed at least 3 times in duplicate.

[3] = Cytotoxicity on VERO cell monolayers (CellTiter Glo, 72 h); assay type: cell-based; details: African green monkey, VERO cell monolayers, ATP level, read-out: Cytotoxicity VERO Cells CC50
Protocol: VERO cells (Rio de Janeiro Cell Bank code 0245) were cultivated in RPMI 1640 medium supplemented with 10% fetal bovine serum (FBS) at 37 °C in a humidified atmosphere of 5% CO2. Confluent monolayers were dissociated with trypsin-EDTA solution (0.025%), and isolated cells were seeded on culture plates or flasks, depending on the experimental assay. The VERO cell cultures were used in cytotoxicity and phenotypic screening assays and for obtaining culture-derived trypomastigotes. The toxic effect of the triazole series was evaluated on VERO cell monolayers. After seeding for 24 hours, VERO cells were treated for 72 h at 37 °C with the 1,2,3-triazole derivatives and Bz, the reference drug, with a range of concentration from 15.62 to 500 µM. Controls were performed with a non-toxic concentration of dimethyl sulfoxide (DMSO; ≤0.1%) used in the experimental assays. Cell viability was determined by measuring ATP level using a CellTiter Glo kit. The luminescence read was performed using a Glomax microplate reader (Promega Corporation, Madison, WI, EUA). The cytotoxicity concentration 50 (CC50), the drug concentration that reduces cell viability by 50%, was calculated using linear regression. […] Cultures were exposed for 72 h to compound concentrations up to 500 µM, following the protocol mentioned above. At least 3 independent assays were performed in duplicate.

[4] = tested on: T. cruzi (Dm28c-Luc)-infected VERO cells; test: Long-term washout assay (10 days treatment, 10 days without compound); assay type: cell-based, Trypanosoma cruzi; details: 10 days treatment (30 or 60 times IC50; Bz 100 µM) + 10 days without compound
Protocol: (§2) A washout assay was performed to evaluate the capacity of the promising candidates to eliminate all parasites. Thus, VERO cells, seeded in 96-well plates at a density of 1.5 × 10^4 cells/well, were infected with T. cruzi (Dm28c-Luc) at a 10:1 parasite–host cell ratio (24 h). Two treatment schedules were performed: 3 days with 30, 50, and 100 µM concentrations and 10 days with 30 and 60 times the IC50 concentrations. After treatment, the cultures were washed with PBS and kept for the same period in RPMI 1640 medium supplemented with 10% FBS without compound pressure. The culture medium was changed every 3 or 4 days during the time course, and the supernatant was harvested for luminescence reading after luciferin (300 µg/mL) addition. At the endpoint, the monolayers were also evaluated for parasite load. The luminescent signal was read using a Glomax reader. Bz (100 µM) and DMSO (≤1%) were used as positive and negative controls, respectively.

[5] = tested on: VERO cells infected with Silvio X10/7; design: method as in PMID 30001347; details: cited from earlier work
[6] = tested on: T. cruzi (Dm28c-Luc)-infected VERO cells; test: Short-term washout assay (3 days treatment, 3 days without compound); assay type: cell-based, Trypanosoma cruzi; details: 100 µM
Protocol: as §2

[7] = mean ± SD, read-out: Trypanocidal Activity Trypomastigotes IC50

Structure (SMILES): Clc1ccc(-n2cc(-c3ccccc3)nn2)cc1 [Triazole 1b, 1-(4-Chlorophenyl)-4-phenyl-1H-1,2,3-triazole]
- IC90 ([1]; mean ± SD): > 100 µM
- IC50 [1, 7]: > 100 µM
- IC50 [2]: > 100 µM
- CC50 at 72 h [3]: > 500 µM

Structure (SMILES): COc1ccc(-n2cc(CO)nn2)cc1 [Triazole 1n, (1-(4-Methoxyphenyl)-1H-1,2,3-triazole-4-yl)methanol]
- IC50 [1, 7]: > 100 µM
- IC50 [2]: > 100 µM
- CC50 at 72 h [3]: > 500 µM

Structure (SMILES): c1ccc(Cn2cc(-c3ccccc3)nn2)cc1 [Triazole 1e, 1-Benzyl-4-phenyl-1H-1,2,3-triazole]
- IC90 ([1]; mean ± SD): > 100 µM
- IC50 [1, 7]: > 100 µM
- Intracellular Amastigotes SI [2]: >6
- IC50 [2]: 83.2 ± 2.27 µM
- CC50 at 72 h [3]: > 500 µM

Structure (SMILES): OC1(c2cn(-c3ccccc3)nn2)CCCCC1 [Triazole 1h, 1-(1-Phenyl-1H-1,2,3-triazole-4-yl)cyclohexan-1-ol]
- IC50 [1, 7]: > 100 µM
- IC50 [2]: > 100 µM
- CC50 at 72 h [3]: > 500 µM

Structure (SMILES): Cc1ccccc1-n1cc(C(C)(C)O)nn1 [Triazole 1a, 2-(1-(o-Tolyl)-1H-1,2,3-triazole-4-yl)propan-2-ol]
- IC90 ([1]; mean ± SD): > 100 µM
- IC50 [1, 7]: > 100 µM
- IC50 [2]: > 100 µM
- CC50 at 72 h [3]: > 500 µM

Structure (SMILES): COc1ccc(-n2cc(C3(O)CCCCC3)nn2)cc1 [Triazole 1j, 1-(1-(4-Methoxyphenyl)-1H-1,2,3-triazole-4-yl)cyclohexan-1-ol]
- IC50 [1, 7]: > 100 µM
- IC50 [2]: > 100 µM
- CC50 at 72 h [3]: > 500 µM

Structure (SMILES): O=C(Cn1ccnc1[N+](=O)[O-])NCc1ccccc1 [Bz, benznidazole, reference compound]
- IC90 ([1]; mean ± SD): > 100 µM
- IC50 [1, 7]: 22.8 ± 4.12 µM
- IC50 ([1]; read-out: pIC50 against trypomastigotes (converted)): 22.9 µM
- Intracellular Amastigotes SI [2]: >107
- IC50 [2]: 4.67 ± 0.22 µM
- IC90 [2]: 21.7 ± 2.37 µM
- CC50 at 72 h [3]: > 500 µM
- infection reactivation / sterile cure [4]: failed to induce a sterile cure
- relapse ([5]; 12.5 to 50 times EC50 for 8 days): did not prevent relapse
- recrudescence ([5]; 16 days of treatment with 25 to 50 times EC50, followed for 60 days): lack of recrudescence
- effect on parasite load / infection progression [6]: potentially inhibited the infection progression

Structure (SMILES): O=C(OCc1cn(-c2ccccc2Cl)nn1)c1ccccc1 [Triazole 1l, (1-(2-Chlorophenyl)-1H-1,2,3-triazole-4-yl)methyl benzoate]
- Trypomastigotes SI ([1]; SI = CC50 of VERO cells/IC50 of trypomastigotes): 2.94
- IC90 ([1]; mean ± SD): > 100 µM
- IC50 [1, 7]: 80.4 ± 3.56 µM
- Intracellular Amastigotes SI [2]: 3.03
- IC50 [2]: 77.9 ± 2 µM
- IC90 [2]: > 100 µM
- CC50 at 72 h [3]: 236 ± 17.9 µM

Structure (SMILES): Brc1ccc(-n2cc(-c3ccccc3)nn2)cc1 [Triazole 1c, 1-(4-Bromophenyl)-4-phenyl-1H-1,2,3-triazole]
- IC90 ([1]; mean ± SD): > 100 µM
- IC50 [1, 7]: > 100 µM
- IC50 [2]: > 100 µM
- CC50 at 72 h [3]: > 500 µM

Structure (SMILES): Cc1ccccc1-n1cc(C2(O)CCCCC2)nn1 [Triazole 1k, 1-(1-(o-Tolyl)-1H-1,2,3-triazole-4-yl)cyclohexan-1-ol]
- IC50 [1, 7]: > 100 µM
- IC50 [2]: > 100 µM
- CC50 at 72 h [3]: > 500 µM
- melting point: 201 to 203 °C

Structure (SMILES): Cc1ccccc1-n1cc(COC(=O)c2ccccc2)nn1 [Triazole 1m, (1-(o-Tolyl)-1H-1,2,3-triazole-4-yl)methyl benzoate]
- IC50 [1, 7]: > 100 µM
- IC50 [2]: > 100 µM
- CC50 at 72 h [3]: > 500 µM

Structure (SMILES): O=[N+]([O-])c1ccc(-n2cc(C3(O)CCCCC3)nn2)cc1 [Triazole 1i, 1-(1-(4-Nitrophenyl)-1H-1,2,3-triazole-4-yl)cyclohexan-1-ol]
- IC50 [1, 7]: > 100 µM
- IC50 [2]: > 100 µM
- CC50 at 72 h [3]: > 500 µM
